According to ChEMBL document CHEMBL3045686, “Insecticidal Activity of N-Acyl-N-(4-aryloxybenzyl)pyrazole-5-carboxamides” (2003):

Key:
Type in all cases: functional
Details in all cases: foliar
Spodoptera litura [1] = assay: Insecticidal activity Spodoptera litura third-instar larvae fed on compound pre-treated cabbage leaf disks assessed as insect mortality at 50 ppm measured 5 days after compound treatment
Spodoptera litura [2] = assay: Insecticidal activity Spodoptera litura third-instar larvae fed on compound pre-treated cabbage leaf disks assessed as insect mortality at 200 ppm measured 5 days after compound treatment
Spodoptera litura [3] = assay: Insecticidal activity Spodoptera litura third-instar larvae fed on compound pre-treated cabbage leaf disks assessed as insect mortality at 13 ppm measured 5 days after compound treatment
Spodoptera litura [4] = assay: Insecticidal activity Spodoptera litura third-instar larvae fed on compound pre-treated cabbage leaf disks assessed as insect mortality at 3.1 ppm measured 5 days after compound treatment

Structure (SMILES)	mortality at 200 ppm (Spodoptera litura [2])	mortality at 13 ppm (Spodoptera litura [3])	further results
CC(=O)N(Cc1ccc(Oc2ccc(C#N)cc2)cc1)C(=O)c1cc(OC(C)C)nn1C			mortality at 50 ppm (Spodoptera litura [1]): > 80%
CCOc1cc(C(=O)N(Cc2ccc(Oc3ccc(C#N)cc3)cc2)C(C)=O)n(C)n1			mortality at 50 ppm (Spodoptera litura [1]): > 80%
COc1cc(C(=O)N(Cc2ccc(Oc3ccc(C#N)cc3)cc2)C(C)=O)n(C)n1			mortality at 50 ppm (Spodoptera litura [1]): > 80%
CCCCCc1cc(C(=O)N(Cc2ccc(Oc3ccc(C#N)cc3)cc2)C(C)=O)n(C)n1	< 80%		
CC(=O)N(Cc1ccc(Oc2ccc(C#N)cc2)cc1)C(=O)c1cc(C(C)(C)C)nn1C	< 80%		
CCC(C)c1cc(C(=O)N(Cc2ccc(Oc3ccc(C#N)cc3)cc2)C(C)=O)n(C)n1 (stereo unspecified)		> 80%	
CC(=O)N(Cc1ccc(Oc2ccc(C#N)cc2)cc1)C(=O)c1cc(CC(C)C)nn1C	> 80%		
CCCCc1cc(C(=O)N(Cc2ccc(Oc3ccc(C#N)cc3)cc2)C(C)=O)n(C)n1	< 80%		
CC(=O)N(Cc1ccc(Oc2ccc(C#N)cc2)cc1)C(=O)c1cc(C2CC2)nn1C		> 80%	
CC(=O)N(Cc1ccc(Oc2ccc(C#N)cc2)cc1)C(=O)c1cc(C(C)C)nn1C			mortality at 50 ppm (Spodoptera litura [1]): > 80%
CCCc1cc(C(=O)N(Cc2ccc(Oc3ccc(C#N)cc3)cc2)C(C)=O)n(C)n1		> 80%	
CCc1cc(C(=O)N(Cc2ccc(Oc3ccc(C#N)cc3)cc2)C(C)=O)n(C)n1			mortality at 3.1 ppm (Spodoptera litura [4]): > 80%
CC(=O)N(Cc1ccc(Oc2ccc(C#N)cc2)cc1)C(=O)c1cc(C)nn1C			mortality at 50 ppm (Spodoptera litura [1]): > 80%
CCc1cc(C(=O)N(Cc2ccc(Oc3ccc(C#N)cc3)cc2)C(=O)C(C)(C)C)n(C)n1			mortality at 50 ppm (Spodoptera litura [1]): > 80%
CCc1cc(C(=O)N(Cc2ccc(Oc3ccc(C#N)cc3)cc2)C(=O)C(C)CC)n(C)n1 (stereo unspecified)		> 80%	
CCc1cc(C(=O)N(Cc2ccc(Oc3ccc(C#N)cc3)cc2)C(=O)CC(C)C)n(C)n1		> 80%	

Structure (SMILES)	mortality at 200 ppm (Spodoptera litura [2])	mortality at 13 ppm (Spodoptera litura [3])	further results
CCCCC(=O)N(Cc1ccc(Oc2ccc(C#N)cc2)cc1)C(=O)c1cc(CC)nn1C		> 80%	
CCc1cc(C(=O)N(Cc2ccc(Oc3ccc(C#N)cc3)cc2)C(=O)C2CC2)n(C)n1		> 80%	
CCc1cc(C(=O)N(Cc2ccc(Oc3ccc(C#N)cc3)cc2)C(=O)C(C)C)n(C)n1			mortality at 3.1 ppm (Spodoptera litura [4]): > 80%
CCCC(=O)N(Cc1ccc(Oc2ccc(C#N)cc2)cc1)C(=O)c1cc(CC)nn1C		> 80%	
CCC(=O)N(Cc1ccc(Oc2ccc(C#N)cc2)cc1)C(=O)c1cc(CC)nn1C		> 80%	
CCc1cc(C(=O)NCc2ccc(Oc3ccc(C#N)cc3)cc2)n(C)n1			mortality at 50 ppm (Spodoptera litura [1]): > 80%
CCc1cc(C(=O)N(Cc2ccc(Oc3ccccc3)cc2)C(C)=O)n(C)n1	< 80%		
CCc1cc(C(=O)N(Cc2ccc(Oc3ccc(OC)cc3)cc2)C(C)=O)n(C)n1	< 80%		
CCc1cc(C(=O)N(Cc2ccc(Oc3ccc(C)cc3)cc2)C(C)=O)n(C)n1	> 80%		
CCc1cc(C(=O)N(Cc2ccc(Oc3ccc(Cl)cc3)cc2)C(C)=O)n(C)n1	> 80%		
CCc1cc(C(=O)N(Cc2ccc(Oc3ccc(F)cc3)cc2)C(C)=O)n(C)n1	> 80%		
CCc1cc(C(=O)N(Cc2ccc(Oc3ccc([N+](=O)[O-])cc3)cc2)C(C)=O)n(C)n1		> 80%	
CCc1cc(C(=O)N(Cc2ccc(Oc3ccc(C(F)(F)F)cc3)cc2)C(C)=O)n(C)n1		> 80%	
CCc1cc(C(=O)N(Cc2ccc(Oc3ccc(SC)cc3)cc2)C(C)=O)n(C)n1			mortality at 3.1 ppm (Spodoptera litura [4]): > 80%
CCCCOc1cc(C(=O)N(Cc2ccc(Oc3ccc(C#N)cc3)cc2)C(C)=O)n(C)n1	> 80%		
